Results: ChEMBL document CHEMBL5241111, “Non-steroidal anti-inflammatory drugs: recent advances in the use of synthetic COX-2 inhibitors” (RSC Med Chem, 2022)

Experiments:
[1] = target: T1, Prostaglandin G/H synthase 2 (Homo sapiens, UniProt P35354); test: Inhibition of human COX-2 using arachidonic acid as substrate preincubated for 10 mins followed by substrate addition and measured after 30 secs by ELISA
T1 sequence (P35354 whole entry): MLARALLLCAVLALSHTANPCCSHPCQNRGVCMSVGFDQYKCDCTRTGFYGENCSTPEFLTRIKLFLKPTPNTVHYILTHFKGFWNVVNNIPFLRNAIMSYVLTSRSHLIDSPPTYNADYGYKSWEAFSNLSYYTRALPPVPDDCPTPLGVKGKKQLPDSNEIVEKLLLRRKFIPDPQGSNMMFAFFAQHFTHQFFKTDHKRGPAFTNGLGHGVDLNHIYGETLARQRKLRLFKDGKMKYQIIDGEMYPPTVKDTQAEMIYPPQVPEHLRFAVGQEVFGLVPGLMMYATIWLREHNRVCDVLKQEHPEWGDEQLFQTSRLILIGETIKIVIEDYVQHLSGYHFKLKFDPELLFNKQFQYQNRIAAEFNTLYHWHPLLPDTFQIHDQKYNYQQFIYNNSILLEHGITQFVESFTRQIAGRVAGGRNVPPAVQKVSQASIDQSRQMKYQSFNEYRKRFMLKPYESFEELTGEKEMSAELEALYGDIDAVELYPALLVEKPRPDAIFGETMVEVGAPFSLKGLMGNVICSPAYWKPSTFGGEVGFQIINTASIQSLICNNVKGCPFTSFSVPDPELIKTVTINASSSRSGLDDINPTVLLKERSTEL

[2] = target: T2, Polyunsaturated fatty acid 5-lipoxygenase (Homo sapiens, UniProt P09917); test: Inhibition of 5-LOX (unknown origin)
T2 sequence (P09917 whole entry): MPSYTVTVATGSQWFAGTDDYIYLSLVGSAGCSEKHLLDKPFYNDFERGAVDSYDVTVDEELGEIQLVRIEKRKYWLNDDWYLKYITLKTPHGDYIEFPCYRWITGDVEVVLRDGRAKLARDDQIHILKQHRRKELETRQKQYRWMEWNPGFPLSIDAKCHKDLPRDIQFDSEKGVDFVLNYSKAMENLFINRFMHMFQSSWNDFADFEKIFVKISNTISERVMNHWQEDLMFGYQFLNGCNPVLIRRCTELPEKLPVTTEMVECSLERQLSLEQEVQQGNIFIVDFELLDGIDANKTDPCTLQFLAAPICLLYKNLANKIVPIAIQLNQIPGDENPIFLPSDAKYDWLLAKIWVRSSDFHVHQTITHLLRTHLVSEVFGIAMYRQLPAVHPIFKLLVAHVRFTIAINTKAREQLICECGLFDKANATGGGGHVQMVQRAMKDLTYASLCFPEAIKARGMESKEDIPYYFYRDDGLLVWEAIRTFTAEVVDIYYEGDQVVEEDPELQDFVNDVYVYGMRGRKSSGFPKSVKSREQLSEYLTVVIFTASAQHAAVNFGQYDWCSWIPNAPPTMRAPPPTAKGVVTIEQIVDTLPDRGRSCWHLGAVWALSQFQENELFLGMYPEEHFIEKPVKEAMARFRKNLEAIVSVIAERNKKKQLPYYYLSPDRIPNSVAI

[3] = system: Rattus norvegicus; test: Antiinflammatory activity against rat model of carrageenan induced paw edema assessed as inhibition of edema measured after 1 to 6 hrs relative to control; assay type: functional; details: time 1-6 hrs
[4] = target: Alpha-glucosidase (Saccharomyces cerevisiae S288c, UniProt P53341+P38158+P07265); test: Inhibition of Saccharomyces cerevisiae alpha-glucosidase using PNPG as substrate preincubated for 10 mins followed by substrate addition by spectrophotometric method; assay type: protein assay
[5] = target: COX-1/COX-2 (Homo sapiens) (UniProt P35354+P23219); test: Selectivity index, ratio of IC50 for inhibition of COX-1 (unknown origin) to IC50 for inhibition of COX-2 (unknown origin); assay type: protein assay
[6] = target: T1, Prostaglandin G/H synthase 2; test: Inhibition of COX-2 (unknown origin)
[7] = target: T1, Prostaglandin G/H synthase 2; test: Inhibition of human recombinant COX-2 using arachidonic acid as substrate preincubated for 5 mins followed by substrate addition and measured after 10 mins by microplate reader analysis
[8] = target: T1, Prostaglandin G/H synthase 2; test: Inhibition of human COX-2 using arachidonic acid as substrate incubated for 30 secs by ELISA
[9] = target: T1, Prostaglandin G/H synthase 2; test: Inhibition of human COX-2 using arachidonic acid as substrate preincubated for 5 mins followed by substrate addition and measured after 2 mins by colorimetric assay
[10] = target: T3, Dihydrofolate reductase (Homo sapiens, UniProt P00374); test: Inhibition of DHFR (unknown origin)
T3 sequence (P00374 whole entry): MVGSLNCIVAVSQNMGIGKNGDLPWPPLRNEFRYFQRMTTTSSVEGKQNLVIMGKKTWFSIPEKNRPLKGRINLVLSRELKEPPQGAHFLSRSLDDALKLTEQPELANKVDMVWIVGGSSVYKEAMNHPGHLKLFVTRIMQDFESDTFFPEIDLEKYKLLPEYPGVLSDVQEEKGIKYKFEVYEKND

[11] = Inhibition of soybean 5-LOX using linoleic acid as substrate preincubated for 5 mins followed by substrate addition and measured after 3 mins; parameters: species or system Glycine max
[12] = target: cGMP-specific 3',5'-cyclic phosphodiesterase (Homo sapiens) (UniProt O76074); test: Inhibition of human PDE5 using cGMP as substrate at 10 uM preincubated for 5 mins followed by substrate addition and measured after 30 mins by HPLC analysis relative to control; details: time 35.0 min

Compound: O=c1[nH]n2c(=O)c3ccccc3nc2/c1=C/c1ccc(Cl)cc1
- IC50 [1]: 47 nM
- IC50 [2]: 600 nM

Compound: COc1cc(/C=c2\c(=O)[nH]n3c(=O)c4ccccc4nc23)cc(OC)c1OC
- IC50 [2]: 600 nM

Compound: O=c1[nH]n2c(=O)c3ccccc3nc2/c1=C/c1ccccc1F
- IC50 [1]: 47 nM
- IC50 [2]: 600 nM

Compound: COc1ccc(-c2cc(-c3ccc(F)cc3)n(-c3ccc(S(N)(=O)=O)cc3)n2)cc1OC
- inhibition (INH) [3]: 42.1%

Compound: O=c1[nH]n2c(=O)c3ccccc3nc2/c1=C/c1ccccc1
- IC50 [1]: 47 nM
- IC50 [2]: 600 nM

Compound: COc1ccccc1/C=c1\c(=O)[nH]n2c(=O)c3ccccc3nc12
- IC50 [1]: 47 nM
- IC50 [2]: 600 nM

Compound: COc1ccc(-c2cc3cc(-c4c[se]nn4)c(OC(C)=O)cc3o2)cc1
- IC50 [4]: 1030 nM

Compound: CC(=O)Oc1cc2oc(-c3ccc(C)cc3)cc2cc1-c1c[se]nn1
- IC50 [4]: 1030 nM

Compound: CCC(=O)c1nnn(-c2ccc(S(N)(=O)=O)cc2)c1C
- Ratio IC50 [5]: 1.95
- IC50 [6]: 2610 nM

Compound: C/C(=N\NC(=O)c1nnn(-c2ccc(S(N)(=O)=O)cc2)c1C)c1cc2ccccc2o1
- Ratio IC50 [5]: 1.95
- IC50 [6]: 2610 nM

Compound: CCOc1cc(/C=C2\C(=O)N(c3ccc(S(N)(=O)=O)cc3)N=C2C)ccc1O
- IC50 [7]: 150 nM

Compound: Cc1c(C(=O)/C=C/c2ccccc2)nnn1-c1ccc(S(N)(=O)=O)cc1
- Ratio IC50 [5]: 1.95
- IC50 [6]: 2610 nM

Compound: NS(=O)(=O)c1ccc(-n2cc(-c3ccc(C(F)(F)F)cc3)nn2)cc1
- IC50 [8]: 3320 nM
- Ratio IC50 [5]: 0.008

Compound: CCCCCC1C(C)=c2c(OCc3nnc(SCC(=O)N4CCN(c5ncccn5)CC4)o3)nn(C)c(=O)c2=C1C (stereo not given)
- IC50 [9]: 6800 nM

Compound: COc1cc(/C=C2\N=C(c3ccccc3)N(c3ccc(S(N)(=O)=O)cc3)C2=O)ccc1OC(=O)c1ccccc1
- IC50 [10]: 280 nM

Compound: Cc1c(C2=NNC(c3ccccc3)C2)nnn1-c1ccc(S(N)(=O)=O)cc1 (stereo not given)
- Ratio IC50 [5]: 1.95
- IC50 [6]: 2610 nM

Compound: COc1ccc2cc([C@H](C)C(=O)N[C@@H](C)C(=O)N/C(=C\c3ccccc3)C(=O)O)ccc2c1
- IC50 [11]: 48900 nM

Compound: C/C(=C/C(=O)Nc1nccs1)Nc1ccc(Cl)cc1
- inhibition [12]: 100%

Compound: CC(=O)Oc1cc2oc(-c3cccc(F)c3)cc2cc1-c1c[se]nn1
- IC50 [4]: 1030 nM

Compound: O=c1[nH]n2c(=O)c3ccccc3nc2/c1=C/c1ccc(F)cc1
- IC50 [1]: 47 nM
- IC50 [2]: 600 nM

Compound: COc1ccc(/C=c2\c(=O)[nH]n3c(=O)c4ccccc4nc23)cc1
- IC50 [1]: 47 nM
- IC50 [2]: 600 nM

Compound: Cc1c(C(=O)NNC(=S)Nc2ccccc2)nnn1-c1ccc(S(N)(=O)=O)cc1
- Ratio IC50 [5]: 1.95
- IC50 [6]: 2610 nM

Compound: COc1cc(/C=C2\C(=O)N(c3ccc(S(N)(=O)=O)cc3)N=C2C)ccc1OCC#N
- IC50 [7]: 150 nM

Compound: COc1ccc(/C=c2\c(=O)[nH]n3c(=O)c4ccccc4nc23)cc1OC
- IC50 [1]: 47 nM
- IC50 [2]: 600 nM

Compound: COc1cc(/C=C2\N=C(c3ccccc3)N(c3ccc(C(=O)O)cc3)C2=O)ccc1OC(=O)c1ccccc1
- IC50 [10]: 280 nM

Compound: CS(=O)(=O)c1ccc(-n2cc(-c3ccc(C(F)(F)F)cc3)nn2)cc1
- IC50 [8]: 226 nM
- Ratio IC50 [5]: 0.008

Compound: COc1ccc2cc([C@H](C)C(=O)N[C@@H](CCSC)C(=O)N/C(=C\c3ccccc3)C(=O)O)ccc2c1
- IC50 [11]: 48900 nM

Compound: CS(=O)(=O)c1ccc(-c2nn(-c3ccc(S(N)(=O)=O)cc3)cc2C=O)cc1
- IC50 [8]: 17 nM
- Ratio IC50 [5]: 0.008

Compound: CC1=NN(c2ccc(S(N)(=O)=O)cc2)C(=O)/C1=C\c1ccc(F)cc1C
- IC50 [7]: 150 nM

Compound: CC(=O)Oc1cc2oc(-c3ccccc3)cc2cc1-c1c[se]nn1
- IC50 [4]: 1030 nM
